Assay results taken from patent publication US20260097083A1, “METHOD FOR PRODUCING PANCREATIC ENDODERM CELLS” (Kyoto University, priority 2022, published 2026).
Where a name gives a salt, the structure may show the parent alone.

How the values were obtained:
[1] = tested on: PDX1+/NKX6.1+ pancreatic endoderm cells derived from human iPS cells; assay: Examination of other ROCK inhibitors for proliferating pancreatic endoderm cells; assay type: cell-based; conditions: 1 week, FIGS. 3-B and 3-C
Protocol: FIG. 3-A A schematic diagram illustrating an experiment of examining other ROCK inhibitors. […] After the elapse of one week, the cells were counted under a fluorescence microscope.
Cells were differentiated to a pancreatic endoderm cell level using a stepwise differentiation-inducing method, and were then re-seeded on a 24-well plate at 2×10^5/well. The following culture media were added to these cultured cells, and the cells were cultured for 1 week. The culture medium for the Control group was improved MEM to which 0.5×B-27 Supplement, 100 U/ml penicillin/streptomycin, 100 ng/ml KGF/FGF7, 50 ng/ml EGF, and 10 mM nicotinamide had been added. […] After fixed using 4% PFA, the cells were subjected to β-gal staining and NKX6.1 antibody immunostaining, and fluorescently stained images were acquired using BZ-800 (Keyence). The number of NKX6.1-positive cells, the NKX6.1-positive ratio, and the β-gal-positive ratio were calculated using the BZ-H4CM/Macro Cell Count function of that microscope. FIGS. 2-A and 3-A show the outline of this procedure.
The experiments were conducted in the same manner as in Example 1. FIGS. 3-B and 3-C show the results.

[2] = tested on: pancreatic endoderm cells (NKX6.1-positive); conditions: added to medium containing Y-27632 50 μM, 6 days, FIG. 7
Protocol: The cells on Day 21 of expansion culture were cultured for 6 days using a culture medium obtained by adding various growth factors and small-molecule compounds to a culture medium for expansion culture containing Y-27632. The other conditions were the same as those of the screening of senescence-related reagents.
After passaged three times using a culture medium to which Y-27632 (50 μM) had been added, pancreatic endoderm cells were seeded on a 24-well plate coated with iMatrix at 2.0×10^5 cells/well. Each of screening reagents was added to the culture medium containing Y-27632 (50 μM), and then the cells were cultured. After 6 days, the ratio of NKX6.1-positive cells was checked through cell immunostaining.

[3] = tested on: NKX6.1-positive pancreatic endoderm cells derived from human iPS cells; assay: Screening of senescence-related reagents; assay type: cell-based
Protocol: FIG. 2-A A schematic diagram illustrating senescence-related reagent screening. […] After the elapse of one week, the cells were counted under a fluorescence microscope. Cells were differentiated to a pancreatic endoderm cell level using a stepwise differentiation-inducing method, and were then re-seeded on a 24-well plate at 2×10^5/well. The following culture media were added to these cultured cells, and the cells were cultured for 1 week. […] After fixed using 4% PFA, the cells were subjected to β-gal staining and NKX6.1 antibody immunostaining, and fluorescently stained images were acquired using BZ-800 (Keyence). The number of NKX6.1-positive cells, the NKX6.1-positive ratio, and the β-gal-positive ratio were calculated using the BZ-[…]/Macro Cell Count function of that microscope. FIGS. 2-A and 3-A show the outline of this procedure. A reagent enabling proliferation of pancreatic endoderm cells derived from human iPS cells was searched for in the senescence-related reagents. […] Then, (1) the number of NKX6.1-positive cells, or (2) the ratio of NKX6.1-positive cells and the ratio of β gal-positive cells were measured after the culture. FIGS. 2-B to 2-D show the results.

## O=S(=O)(c1cccc2cnccc12)N1CCCNCC1 [Fasudil hydrochloride]
[1]
  effect of proliferating pancreatic endoderm cells (total cells, NKX6.1-positive cells): exhibited the effect of proliferating pancreatic endoderm cells

## CC1=C(C(=O)Nc2cc3cn[nH]c3cc2F)C(c2ccc(C(F)(F)F)cc2)CC(=O)N1 (centres unmarked) [GSK429286A]
[1]
  effect of proliferating pancreatic endoderm cells (total cells, NKX6.1-positive cells): exhibited the effect of proliferating pancreatic endoderm cells

## Cc1cncc2cccc(S(=O)(=O)N3CCCNC[C@@H]3C)c12 [H1152]
[1]
  effect of proliferating pancreatic endoderm cells (total cells, NKX6.1-positive cells): exhibited the effect of proliferating pancreatic endoderm cells

## Cc1cccc(-c2n[nH]cc2-c2ccc3ncccc3n2)n1 [ALK5 inhibitor, 2-[3-[6-methylpyridin-2-yl]-1H-pyrazol-4-yl]-1,5-naphthyridine]
[2]
  ratio of NKX6.1-positive cells (screening outcome): identified as candidates for a factor for improving expansion culture

## CC1(C)CCC(c2ccc(Cl)cc2)=C(CN2CCN(c3ccc(C(=O)NS(=O)(=O)c4ccc(N[C@H](CCN5CCOCC5)CSc5ccccc5)c(S(=O)(=O)C(F)(F)F)c4)cc3)CC2)C1 [ABT263]
[3]; 1 week, FIG. 2-D
  ratio of β gal-positive cells (senescent cells): reduction in the ratio of β gal-positive cells
[3]; inferred from FIG. 2-B and 2-D
  cause inferred for the reduction in β gal-positive ratio: toxicity

## O=C(NCc1ccccc1)c1csc(Nc2ccncn2)n1 [Thiazovivin]
[1]
  effect of proliferating pancreatic endoderm cells (total cells, NKX6.1-positive cells): exhibited the effect of proliferating pancreatic endoderm cells

## CCn1c(-c2nonc2N)nc2cnc(Oc3cccc(NC(=O)c4ccc(OCCN5CCOCC5)cc4)c3)cc21 [GSK269962]
[1]
  effect of proliferating pancreatic endoderm cells (total cells, NKX6.1-positive cells): exhibited the effect of proliferating pancreatic endoderm cells
